# Measurements as given in patent publication US20220390432A1, “METHODS OF CHARACTERIZING AND UTILIZING AGENT-CONDENSATE INTERACTIONS” (Whitehead Institute for Biomedical Research, priority 2019, published 2022).
# Key:
# [1] = biological target: T1, MED1 condensates (Homo sapiens, UniProt Q15648); test: Determination of partitioning by spectrophotometry and quantitative phase microscopy; type: binding
# T1 construct: MED1—amino acids 600-1581; 6xHis (N); made in house; host or cells: LOBSTR cells (E. coli)
# T1 sequence (Q15648 600-1581): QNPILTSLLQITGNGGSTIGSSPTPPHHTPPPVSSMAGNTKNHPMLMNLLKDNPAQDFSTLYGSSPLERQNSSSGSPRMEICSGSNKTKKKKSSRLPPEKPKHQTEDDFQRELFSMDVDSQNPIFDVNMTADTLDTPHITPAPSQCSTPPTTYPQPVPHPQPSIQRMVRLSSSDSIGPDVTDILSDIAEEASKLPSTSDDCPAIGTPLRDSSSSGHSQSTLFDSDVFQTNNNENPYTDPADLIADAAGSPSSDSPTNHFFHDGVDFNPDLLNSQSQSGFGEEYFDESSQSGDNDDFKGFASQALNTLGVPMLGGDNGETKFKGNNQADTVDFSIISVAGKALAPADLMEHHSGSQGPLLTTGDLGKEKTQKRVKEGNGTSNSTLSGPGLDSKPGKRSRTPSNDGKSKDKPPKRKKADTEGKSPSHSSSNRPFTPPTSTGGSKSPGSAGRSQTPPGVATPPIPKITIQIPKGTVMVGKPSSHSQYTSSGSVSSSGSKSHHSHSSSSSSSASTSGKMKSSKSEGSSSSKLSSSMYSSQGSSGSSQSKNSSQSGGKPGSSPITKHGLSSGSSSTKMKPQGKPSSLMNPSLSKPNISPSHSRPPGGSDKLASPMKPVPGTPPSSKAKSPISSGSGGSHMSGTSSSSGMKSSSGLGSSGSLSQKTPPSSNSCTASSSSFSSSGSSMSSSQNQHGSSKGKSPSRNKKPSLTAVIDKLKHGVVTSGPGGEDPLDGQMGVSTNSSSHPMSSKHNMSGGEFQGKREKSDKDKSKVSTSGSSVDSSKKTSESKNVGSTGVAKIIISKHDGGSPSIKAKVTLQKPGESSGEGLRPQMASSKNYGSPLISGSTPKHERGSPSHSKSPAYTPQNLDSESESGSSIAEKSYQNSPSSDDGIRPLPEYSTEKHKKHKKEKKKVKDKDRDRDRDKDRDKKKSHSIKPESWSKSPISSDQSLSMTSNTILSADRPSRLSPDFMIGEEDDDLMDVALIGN
# Description: Here, an expression is derived briefly for the partition coefficient of a client molecule into a condensed phase in terms of quantities that are readily measurable experimentally. A sample composed of two coexisting phases is considered, named dilute and condensed, with volume fractions ϕdilute and […]. If a client molecule (e.g. a drug) is also present in the sample at an average concentration of ctotal, then mass conservation requires that
# the ratio is estimated ctotal/cdilute from fluorescence spectroscopy measurements, as described in a subsequent section, while ϕcond, it is inferred from the lever rule (M. Rubinstein, R. H. Colby, Polymer Phyics (Oxford University Press, 2003) as follows: denoting the concentration of scaffold protein (e.g. MED1) by s, mass conservation gives stotal=sdiluteϕdilute+scondϕcond, in analogy with Eq. 1. Again using the requirement that the volume fractions of coexisting phases sum to 1, this can be rearranged to yield
# where stotal and sdilute are measured spectrophotometrically from optical absorbance at 280 nm, and scond is measured from quantitative phase microscopy, using a coherence-controlled holographic microscope (Q-Phase, Telight (formerly TESCAN), Bmo, CZ) equipped with 40× dry objectives (NA=0.90). […]
# where A is the measured absorbance (in Absorbance Units (AU)), I0 is the intensity of the incident light at a given wavelength, I is the transmitted intensity, L the path length through the sample, and c the concentration of the absorbing species. […] The partitioned drug was measured by using spin down assay. […] The supernatant was collected and measured the concentrations of the drug. The partitioned drug was calculated by subtracting from the total known concentration of drug added.
# Quantitative phase measurements were performed using a coherence-controlled holographic microscope (Q-Phase, Telight (formerly TESCAN), Brno, CZ) equipped with 40× dry objectives (NA=0.90) as follows. […]
# Q-PHASE software was used to construct compensated phase images from acquired holograms, which were subsequently analyzed in MATLAB using custom code. […]
# [2] = Droplet formation assay of small molecule alone without any protein; type: physicochemical; settings: without any protein added
# Method: Recombinant BFP, GFP, or mCherry fusion proteins were concentrated and desalted to an appropriate protein concentration and 125 mM NaCl using Amicon Ultra centrifugal filters (30K MWCO, Millipore). […] […] The protein solution was immediately loaded onto glass bottom 384 well plate (Cellvis P384-1.5H-N) and imaged with an Andor confocal microscope with a 150× objective. Unless indicated, images presented are of droplets settled on the glass coverslip.
structure (smiles),measurement,setting,value
N.N.[Cl][Pt][Cl] [cisplatin],partition coefficient in MED1 droplets,[1],up to 600
same,partition ratio in MED1 condensates,[1]; uv spectroscopy of drug remaining in solution plus condensate volume estimate,up to 600 fold
same,droplet formation of small molecule alone,[2],diffuse fluorescent signal
